From patent US7122550B2, “Protein kinase inhibitors” (Cytopia Pty Ltd, priority 2002, dated 2006)

Key:
Assay type in all cases: cell-based
Tel-Jak2 = target: T1, Tel-Jak2 (Homo sapiens, UniProt O60674); test: Cellular growth inhibition assay (MTT), Tel-Jak2 transformed BaF3 cell line; conditions: 40 hr incubation, read-out: Jak2: growth inhibitory activity (>50%) in transformed cell line Tel-Jak2
T1 construct: The regions encompassing the kinase domains of JAK2 (nucleotides 2994–3914); TEL (ETV6, human P41212) N-terminal part encoded by nucleotides 1-487 of TEL; expressed in transfected cells; host or cells: BaF3 (murine) bearing pTET-off, transfected with pTELJAK2 (pTRE2 vector); the other entry of the earlier key: ETV6 (P41212, Transcription factor ETV6)
T1 sequence (O60674 with tags, fused parts or gaps): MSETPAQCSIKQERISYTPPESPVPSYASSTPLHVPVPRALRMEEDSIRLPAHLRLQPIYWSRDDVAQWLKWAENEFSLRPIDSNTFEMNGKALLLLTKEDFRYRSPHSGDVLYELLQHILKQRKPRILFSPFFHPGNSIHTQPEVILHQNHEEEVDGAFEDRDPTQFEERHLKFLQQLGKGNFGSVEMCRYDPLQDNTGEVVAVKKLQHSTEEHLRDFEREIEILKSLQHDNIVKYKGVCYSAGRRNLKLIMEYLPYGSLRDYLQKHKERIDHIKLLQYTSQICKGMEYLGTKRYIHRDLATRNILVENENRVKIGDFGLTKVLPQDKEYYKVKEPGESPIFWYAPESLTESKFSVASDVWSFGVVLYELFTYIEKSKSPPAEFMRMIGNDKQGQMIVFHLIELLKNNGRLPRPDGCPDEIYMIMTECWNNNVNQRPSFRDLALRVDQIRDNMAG
Source text: (§1) The coding region encompassing nucleotides 1–487 of TELwas amplified by PCR using the oligonucleotides 5TEL (5′-GGAGGATCCTGATCTCTCTCGCTGTGAGAC-3′) and 3TEL (5′-AGGC GTCGACTTCTTCTTCATGGTTCTG-3′) and U937 mRNA as template. A BamHI site was present into the 5TEL Primer, a SalI site was incorporated into the 3TEL primer. The regions encompassing the kinase domains of JAK2 (nucleotides 2994–3914; JAK2F 5′-ACGC GTCGACGGTGCCTTTGAAGACCGGGAT-3′; JAK2R 5′-ATAGTTTAGCGGCCGCTCAGAATGAAGGTCATTT-3′) and JAK3 (nucleotides 2520–3469; JAK3F 5′-GAAGTCGACTATGCCTGCCAAGACCCCACGATCTT-3′; JAK3R 5′-GGATCTAGACTATGAAAAGGACAGGGAGTGGTGTTT-3′) were generated by PCR using Taq DNA Polymerase (Gibco/BRL) and U937 mRNA as template. A SalI site was incorporated into the forward primer of JAK2 and JAK3, a NotI site was incorporated into the JAK2 reverse primer and a Xba I site was added to the reverse primer of JAK3.
(§2) A TEL/Jak2 fusion was generated by digestion of the TELPCR product with BamHI/SalI, digestion of the JAK2 PCR product with SalI/NotI followed by ligation and subcloning into the mammalian expression Vector pTRE 2 (Clontech) digested with BamHI-NotI (pTELJAK2). For JAK3 SalI/NotI cleaved kinase domain PCR product was ligated with BamHI/SalI cleaved TELproduct followed by ligation into BamHI/NotI cleaved pTRE2 (pTELJAK3).
(§3) The growth factor dependent myelomonocytic cell line BaF3 bearing the pTET-off plasmid (Clontech) was transfected with either pTELJAK2 or pTELJAK3 and the cells selected for factor independent growth. BaF 3 wild type cells were cultured in DMEM 10% FCS, 10% WEHI 3B conditioned medium. BaF3 TELJAK cells were cultured in DMEM 10% Tet-System Approved FBS (without WEHI 3B conditioned medium).
(§4) Cell suspensions were prepared by harvesting cells from culture. (Cells used in this test should be in later log phase growth and high viability.) Cells were diluted in correct growth medium to 1.1×final concentration (from 50000 cell/mL to 200,000 cell/mL, depending on cell line).
(§5) Compounds to be tested were added (10 μL, 10×final concentration) to a flat bottom 96-well plate. The cellular suspension (90 μL per well) was added, and the plate incubated for 40 hr at 37° C., 5% CO2. MTT (20 μL per well, 5 mg/mL in PBS) was added and the plates were returned to the incubator for a further 6 hours. Lysis buffer (100 μL per well, 10% SDS, 0.01N HCl) was added and the plate stored in the incubator overnight. The plate was then read at 590 nm.

Tel-Jak3 = target: T2, Tel-Jak3 (Homo sapiens, UniProt P52333); test: Cellular growth inhibition assay (MTT), Tel-Jak3 transformed BaF3 cell line; conditions: 40 hr incubation, read-out: Jak3: growth inhibitory activity (>50%) in transformed cell line Tel-Jak3
T2 construct: TEL (ETV6, human P41212) N-terminal part encoded by nucleotides 1-487 of TEL; expressed in transfected cells; host or cells: BaF3 (murine) bearing pTET-off, transfected with pTELJAK3 (pTRE2 vector); the other entry of the earlier key: ETV6 (P41212, Transcription factor ETV6)
T2 sequence (P52333 with tags, fused parts or gaps): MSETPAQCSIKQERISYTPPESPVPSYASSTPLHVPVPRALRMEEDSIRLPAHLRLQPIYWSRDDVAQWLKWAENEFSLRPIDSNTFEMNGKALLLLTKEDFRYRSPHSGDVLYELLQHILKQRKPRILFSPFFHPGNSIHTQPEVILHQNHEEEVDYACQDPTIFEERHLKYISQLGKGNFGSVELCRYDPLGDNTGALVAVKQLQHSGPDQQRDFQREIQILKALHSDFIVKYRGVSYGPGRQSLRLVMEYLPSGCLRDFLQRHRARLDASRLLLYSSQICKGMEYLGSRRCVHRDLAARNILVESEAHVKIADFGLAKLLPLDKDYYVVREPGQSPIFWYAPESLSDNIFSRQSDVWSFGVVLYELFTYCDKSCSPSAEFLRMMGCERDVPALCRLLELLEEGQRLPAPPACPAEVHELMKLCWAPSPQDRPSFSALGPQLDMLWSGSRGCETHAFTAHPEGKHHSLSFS
Source text: as §1, §2, §3, §4, §5

DU145 = test: Cellular growth inhibition assay (MTT), DU145 cells; conditions: Homo sapiens, DU-145, 40 hr incubation, read-out: DU145: growth inhibitory activity
Procedure: as §4, §5

Structure (SMILES) | inhibition at 50 µM (Tel-Jak2) | inhibition at 50 µM (Tel-Jak3) | inhibition at 50 µM (DU145)
COc1cc(-c2cncc(N[C@H]3CCc4ccccc43)n2)ccc1O [Chemistry 68] | > 50% | > 50% | 
COc1cc(-c2cncc(N[C@H]3CCCc4ccccc43)n2)ccc1O [Chemistry 87] | > 50% | < 50% | 
COc1ccc([C@H](C)Nc2cncc(-c3ccc(O)c(OC)c3)n2)cc1 [Chemistry 117] | > 50% | > 50% | < 50%
COc1cc(-c2cncc(N[C@@H](C)c3ccccc3)n2)ccc1O [Chemistry 118] | > 50% | > 50% | > 50%
CC[C@H](Nc1cncc(-c2ccc(O)c(OC)c2)n1)c1ccccc1 [Chemistry 119] | > 50% | > 50% | > 50%
COc1cc(-c2cncc(Nc3cc(Cl)ccc3C)n2)ccc1O [Chemistry 130] | > 50% | < 50% | > 50%
COc1cc(-c2cncc(NCc3cccnc3)n2)ccc1O [Chemistry 136] | > 50% | > 50% | > 50%
COc1cc(-c2cncc(N(C)Cc3ccccc3)n2)ccc1O [Chemistry 137] | > 50% | > 50% | < 50%
COc1cc(-c2cncc(NCc3ccc(Cl)c(Cl)c3)n2)ccc1O [Chemistry 139] | > 50% | > 50% | < 50%
COc1cc(-c2cncc(NCc3ccco3)n2)ccc1O [Chemistry 141] | > 50% | > 50% | > 50%
COc1cc(-c2cncc(N(C)[C@@H](C)c3ccccc3)n2)ccc1O [Chemistry 142] | > 50% | > 50% | < 50%
COc1cc(-c2cncc(Nc3cc(F)ccc3C)n2)ccc1O [Chemistry 144] | > 50% | > 50% | < 50%
COc1cc(-c2cncc(N[C@@H](C)c3ccc4ccccc4c3)n2)ccc1O [Chemistry 155] | > 50% | > 50% | < 50%
COc1cc(-c2cncc(Nc3ccc(F)cc3C)n2)ccc1O [Chemistry 156] | > 50% | > 50% | < 50%
COc1cccc([C@H](C)Nc2cncc(-c3ccc(O)c(OC)c3)n2)c1 [Chemistry 158] | > 50% | > 50% | > 50%
C[C@H](Nc1cncc(-c2ccc(F)c(Cl)c2)n1)c1ccccc1 [Chemistry 174] | > 50% | > 50% | < 50%
C[C@H](Nc1cncc(-c2ccc(O)c(Cl)c2)n1)c1ccccc1 [Chemistry 175] | < 50% | > 50% | < 50%
C[C@H](Nc1cncc(-c2ccc(N)cc2)n1)c1ccccc1 [Chemistry 181] | > 50% | > 50% | < 50%
COc1cc(-c2cncc(NC(C)c3ccc(-c4ccccc4)cc3)n2)ccc1O (stereo not shown) [Chemistry 185] | > 50% | > 50% | < 50%
COc1cc(-c2cncc(NC(C)c3ccc(-n4ccnc4)cc3)n2)ccc1O (stereo not shown) [Chemistry 186] | > 50% | > 50% | < 50%

Structure (SMILES) | inhibition at 50 µM (Tel-Jak2) | inhibition at 50 µM (Tel-Jak3) | inhibition at 50 µM (DU145)
COc1cc(-c2cncc(NC(C)c3cccnc3)n2)ccc1O (stereo not shown) [Chemistry 187] | > 50% | > 50% | > 50%
C[C@H](Nc1cncc(-c2ccc(NS(C)(=O)=O)cc2)n1)c1ccccc1 [Chemistry 192] | > 50% | > 50% | > 50%
C[C@H](Nc1cncc(-c2ccc(NC(=O)C3CC3)cc2)n1)c1ccccc1 [Chemistry 193] | > 50% | > 50% | > 50%
COc1cc(-c2cncc(NC(C)c3ccncc3)n2)ccc1O (stereo not shown) [Chemistry 200] | > 50% | > 50% | < 50%
C[C@H](Nc1cncc(-c2ccc(NS(=O)(=O)c3ccccc3)cc2)n1)c1ccccc1 [Chemistry 226] | > 50% | > 50% | > 50%
COc1cc(-c2cncc(NC(C)c3cccc(NC(=O)N4CCN(C)CC4)c3)n2)ccc1O (stereo not shown) [Chemistry 241] | > 50% | > 50% | < 50%
COc1cc(-c2cncc(NC(C)c3ccc(-c4ccncc4)cc3)n2)ccc1O (stereo not shown) [Chemistry 266] | > 50% | > 50% | > 50%
COc1cc(-c2cncc(NC(C)c3cccc(NC(=O)C4CCCN4)c3)n2)ccc1O (stereo not shown) [Chemistry 267] | > 50% | > 50% | > 50%
COc1cc(-c2cncc(NC(C)c3cccc(NC(=O)c4cccnc4)c3)n2)ccc1O (stereo not shown) [Chemistry 268] | > 50% | > 50% | > 50%
COc1cc(-c2cncc(NC(C)c3cccc(NC(=O)c4ccncc4)c3)n2)ccc1O (stereo not shown) [Chemistry 269] | > 50% | > 50% | > 50%
COc1cc(-c2cncc(NC(C)c3ccc(-c4cccnc4)cc3)n2)ccc1O (stereo not shown) [Chemistry 270] | > 50% | > 50% | > 50%
COc1cc(-c2cncc(NC(C)c3cccc(NC(C)=O)c3)n2)ccc1O (stereo not shown) [Chemistry 276] | > 50% | > 50% | < 50%
COc1cc(-c2cncc(NC(C)c3ccc(NC(=O)c4ccncc4)cc3)n2)ccc1O (stereo not shown) [Chemistry 279] | > 50% | > 50% | > 50%
COc1cc(-c2cncc(NC(C)c3ccc(NC(=O)c4cccnc4)cc3)n2)ccc1O (stereo not shown) [Chemistry 280] | > 50% | > 50% | < 50%
COc1cc(-c2cncc(NC(C)c3ccc(NC(=O)C4CCCN4C(=O)OC(C)(C)C)cc3)n2)ccc1O (stereo not shown) [Chemistry 281] | > 50% | > 50% | > 50%
COc1cc(-c2cncc(NC(C)c3ccc(NC(=O)CN4CCN(C)CC4)cc3)n2)ccc1O (stereo not shown) [Chemistry 282] | > 50% | > 50% | > 50%
COc1cc(-c2cncc(NC(C)c3ccc(NC(=O)N4CCN(C)CC4)cc3)n2)ccc1O (stereo not shown) [Chemistry 283] | > 50% | > 50% | > 50%
CCN(CC)CCOc1ccc(C(C)Nc2cncc(-c3ccc(O)c(OC)c3)n2)cc1 (stereo not shown) [Chemistry 285] | > 50% | > 50% | > 50%
COc1cc(-c2cncc(NC(C)c3ccc(C#N)cc3)n2)ccc1O (stereo not shown) [Chemistry 303] | > 50% | > 50% | < 50%
